Laboratory results reported in EP2669276A1 (Université de Strasbourg, priority 2012, dated 2013).

Columns and labels:
[1] = biological target: T1, hNPFF2 (Homo sapiens, UniProt Q9Y5X5); test: Receptor binding assay with [3H]-FFRFamide on CHO cell membranes expressing SF-hNPFFR2; settings: [3H]-FFRF-NH2 radioligand, mean of at least two experiments; for Ki: read-out: Ki NPFF2
T1 construct: The cDNA encoding the full-length human NPFFR1 and human NPFFR2; expressed in transfected cells
From the text: (§1) The cDNA encoding the full-length human NPFFR1 and human NPFFR2 were subcloned into the pcDNA3 expression vector (Invitrogen, Cergy Pontoise, France) using standard molecular biology methods. A sequence encoding a signal sequence and a Flag epitope was fused to the 5' coding sequence of both hNPFFR1 and hNPFFR2 cDNA according to (Guan et al., 1992) resulting in a SF-hNPFFR1 and SF-hNPFFR2 constructs. These contructs were stably transfected into CHO cells.
(§2) Membranes from CHO cells stably expressing SF-hNPFFR1 or SF-hNPFFR2 were prepared as described (Becker et al., 1999). SF-hNPFFR1 or SF-hNPFFR2 membranes (10µg) were incubated for 30 min at 25 °C in a final volume of 0.5 ml containing 50 mM HEPES pH 7.4, 1 mM CaCl2, 1 mM MgCl2, 0.1% bovine serum albumin, 10 nM and 3 nM [^3H]-FFRFamide (CEA, Paris; specific activity, 13,6 Ci/mmol) for […], respectively and the ligands to be tested. Non-specific binding was determined in presence of 1 µM neuropeptide FF for SF-hNPFFR2 and 1 µM neuropeptide VF for SF -hNPFFR1. Typical total and nonspecific binding were 1200 and 200 dpm, respectively for SF-hNPFFR1 and SF-hNPFFR2. Incubation mixtures were rapidly filtered and washed with 50 mM HEPES pH 7.4, 1 mM CaCl2, 1 mM MgCl2, on 96 wells GF/B unifilter (Perkin Elmer). Unifilter plates where then dryied for 1hr at 65°C. Bound radioactivity was determined by scintillation counting with 30 µl of scintillation cocktail (O-scint, Perkin Elmer) per well on a Topcount scintillation apparatus (Perkin Elmer).

[2] = biological target: T2, hNPFF1 (Homo sapiens, UniProt Q9GZQ6); test: Receptor binding assay with [3H]-FFRFamide on CHO cell membranes expressing SF-hNPFFR1; settings: [3H]-FFRF-NH2 radioligand, mean of at least two experiments; for Ki: read-out: Ki NPFF1
T2 construct: The cDNA encoding the full-length human NPFFR1 and human NPFFR2; expressed in transfected cells
From the text: as §1, §2

T2 sequence (Q9GZQ6 whole entry): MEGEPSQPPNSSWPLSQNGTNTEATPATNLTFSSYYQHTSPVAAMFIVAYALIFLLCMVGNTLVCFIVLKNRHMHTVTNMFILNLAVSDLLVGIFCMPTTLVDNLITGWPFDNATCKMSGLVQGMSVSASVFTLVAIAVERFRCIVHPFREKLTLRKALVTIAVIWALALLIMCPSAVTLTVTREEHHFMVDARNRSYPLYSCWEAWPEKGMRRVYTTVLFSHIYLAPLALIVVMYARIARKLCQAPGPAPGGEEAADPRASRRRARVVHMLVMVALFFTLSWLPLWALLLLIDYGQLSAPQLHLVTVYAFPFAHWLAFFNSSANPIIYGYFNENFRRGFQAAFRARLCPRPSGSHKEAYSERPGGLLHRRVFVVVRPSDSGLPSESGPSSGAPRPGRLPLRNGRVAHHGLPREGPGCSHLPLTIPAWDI
T1 sequence (Q9Y5X5 whole entry): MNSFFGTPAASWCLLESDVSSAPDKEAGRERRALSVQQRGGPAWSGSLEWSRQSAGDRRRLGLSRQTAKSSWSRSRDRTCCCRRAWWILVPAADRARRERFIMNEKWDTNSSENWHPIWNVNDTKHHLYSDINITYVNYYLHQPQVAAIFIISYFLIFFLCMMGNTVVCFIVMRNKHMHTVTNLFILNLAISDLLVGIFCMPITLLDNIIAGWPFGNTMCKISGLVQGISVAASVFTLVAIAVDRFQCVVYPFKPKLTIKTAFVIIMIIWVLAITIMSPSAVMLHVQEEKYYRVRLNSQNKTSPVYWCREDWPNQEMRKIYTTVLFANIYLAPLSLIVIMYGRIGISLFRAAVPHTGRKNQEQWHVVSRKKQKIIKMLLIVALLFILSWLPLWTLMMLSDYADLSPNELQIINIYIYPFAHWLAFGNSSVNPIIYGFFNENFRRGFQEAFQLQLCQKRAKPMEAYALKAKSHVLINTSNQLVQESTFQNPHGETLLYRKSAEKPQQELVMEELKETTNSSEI

| Structure (SMILES) | Ki [1] [nM] | Ki [2] [nM] | inhibition at 0.5 µM [1] [%] | inhibition at 5 µM [1] [%] | inhibition at 0.5 µM [2] [%] | inhibition at 5 µM [2] [%] |
| --- | --- | --- | --- | --- | --- | --- |
| O=C(N[C@@H](CCCNCCc1ccccc1)C(=O)NCCc1ccccc1)c1ccccc1-c1ccccc1 [Compound 3, (2S)-N-(2-phenylethyl)-5-[(2-phenylethyl)amino]-2-[(2-phenylphenyl)formamido]pentanamide] | – | – | 15 ± 15 | 24 ± 6 | 29 ± 2 | 61 ± 1 |
| CC(C)CNCCC[C@H](NC(=O)c1ccccc1-c1ccccc1)C(=O)NCCc1ccccc1 [Compound 4, (2S)-5-[(2-methylpropyl)amino]-N-(2-phenylethyl)-2-[(2-phenylphenyl)formamido]pentanamide] | – | – | 2 ± 6 | 7 ± 15 | 14 ± 1 | 23 |
| CN(CCc1ccccc1)C(=O)[C@H](CCCNCc1ccccc1)NC(=O)c1ccccc1-c1ccccc1 [Compound 5, (2S)-5-(benzylamino)-N-methyl-N-(2-phenylethyl)-2-[(2-phenylphenyl)formamido]pentanamide] | 1300 ± 590 | 56 ± 11 | – | – | – | – |
| O=C(N[C@@H](CCCCNCc1ccccc1)C(=O)NCCc1ccccc1)c1ccccc1-c1ccccc1 [Compound 6, (2S)-6-(benzylamino)-N-(2-phenylethyl)-2-[(2-phenylphenyl)formamido]hexanamide] | 720 ± 59 | 210 ± 39 | – | – | – | – |
| O=C(N[C@H](CCCCNCc1ccccc1)C(=O)NCCc1ccccc1)c1ccccc1-c1ccccc1 [Compound 7, (2R)-6-(benzylamino)-N-(2-phenylethyl)-2-[(2-phenylphenyl)formamido]hexanamide] | 605 ± 180 | 22 ± 4 | – | – | – | – |
| COc1ccccc1CNCCC[C@H](NC(=O)c1ccccc1-c1ccccc1)C(=O)NCCc1ccccc1 [Compound 8, (2S)-5-{[(2-methoxyphenyl)methyl]amino}-N-(2-phenylethyl)-2-[(2-phenylphenyl)formamido]pentanamide] | 103 ± 44 | 23 ± 4 | – | – | – | – |
| COc1cccc(CNCCC[C@H](NC(=O)c2ccccc2-c2ccccc2)C(=O)NCCc2ccccc2)c1 [Compound 9, (2S)-5-{[(3-methoxyphenyl)methyl]amino}-N-(2-phenylethyl)-2-[(2-phenylphenyl)formamido]pentanamide] | – | – | 9 ± 1 | 45 | 21 ± 4 | 60 ± 3 |
| COc1ccc(CNCCC[C@H](NC(=O)c2ccccc2-c2ccccc2)C(=O)NCCc2ccccc2)cc1 [Compound 10, (2S)-5-{[(4-methoxyphenyl)methyl]amino}-N-(2-phenylethyl)-2-[(2-phenylphenyl)formamido]pentanamide] | – | 30 ± 2 | 11 ± 20 | 40 ± 2 | – | – |
| O=C(N[C@@H](CCCNC1CCCCC1)C(=O)NCCc1ccccc1)c1ccccc1-c1ccccc1 [Compound 11, (2S)-5-(cyclohexylamino)-N-(2-phenylethyl)-2-[(2-phenylphenyl)formamido]pentanamide] | – | – | 8 ± 3 | 26 ± 8 | 49 ± 37 | 37 ± 1 |
| O=C(N[C@@H](CCCNCc1cccc(Cl)c1)C(=O)NCCc1ccccc1)c1ccccc1-c1ccccc1 [Compound 13, (2S)-5-{[(3-chlorophenyl)methyl]amino}-N-(2-phenylethyl)-2-[(2-phenylphenyl)formamido]pentanamide] | – | 59 ± 14 | 23 ± 17 | 67 ± 4 | – | – |
| O=C(N[C@@H](CCCNCc1ccc(Cl)cc1)C(=O)NCCc1ccccc1)c1ccccc1-c1ccccc1 [Compound 14, (2S)-5-{[(4-chlorophenyl)methyl]amino}-N-(2-phenylethyl)-2-[(2-phenylphenyl)formamido]pentanamide] | – | 45 ± 4 | 16 ± 2 | 54 ± 3 | – | – |
| COc1ccc(CN(C)CCC[C@H](NC(=O)c2ccccc2-c2ccccc2)C(=O)NCCc2ccccc2)cc1OC [Compound 17, (2S)-5-{[(3,4-dimethoxyphenyl)methyl](methyl)amino}-N-(2-phenylethyl)-2-[(2-phenylphenyl)formamido]pentanamide] | – | – | 18 ± 2 | 48 ± 3 | 17 ± 5 | 65 ± 6 |
| CN(CCC[C@H](NC(=O)c1ccccc1-c1ccccc1)C(=O)NCCc1ccccc1)Cc1cccc(Cl)c1 [Compound 18, (2S)-5-{[(3-chlorophenyl)methyl](methyl)amino}-N-(2-phenylethyl)-2-[(2-phenylphenyl)formamido]pentanamide] | – | – | 8 ± 5 | 40 ± 3 | 8 ± 3 | 45 ± 2 |
| CN(CCC[C@H](NC(=O)c1ccccc1-c1ccccc1)C(=O)NCCc1ccccc1)Cc1ccc(Cl)cc1 [Compound 20, (2S)-5-{[(4-chlorophenyl)methyl](methyl)amino}-N-(2-phenylethyl)-2-[(2-phenylphenyl)formamido]pentanamide] | – | – | 11 ± 3 | 39 ± 1 | 14 ± 7 | 51 ± 2 |
| COc1ccc(CN(C)CCC[C@H](NC(=O)c2ccccc2-c2ccccc2)C(=O)NCCc2ccccc2)cc1 [Compound 21, (2S)-5-{[(4-methoxyphenyl)methyl](methyl)amino}-N-(2-phenylethyl)-2-[(2-phenylphenyl)formamido]pentanamide] | – | – | 0 | 47 | 12 ± 10 | 58 ± 14 |
| COc1cccc(CN(C)CCC[C@H](NC(=O)c2ccccc2-c2ccccc2)C(=O)NCCc2ccccc2)c1 [Compound 22, (2S)-5-{[(3-methoxyphenyl)methyl](methyl)amino}-N-(2-phenylethyl)-2-[(2-phenylphenyl)formamido]pentanamide] | – | – | 6 | 39 ± 2 | 7 ± 6 | 50 ± 2 |
| CN(CCC[C@H](NC(=O)c1ccccc1-c1ccccc1)C(=O)NCCc1ccccc1)CCc1ccccc1 [Compound 23, (2S)-5-[methyl(2-phenylethyl)amino]-N-(2-phenylethyl)-2-[(2-phenylphenyl)formamido]pentanamide] | – | 103 ± 15 | 22 ± 3 | 35 ± 8 | – | – |

Second part, the molecule after the results:

| Ki [1] [nM] | Ki [2] [nM] | inhibition at 0.5 µM [1] [%] | inhibition at 5 µM [1] [%] | inhibition at 0.5 µM [2] [%] | inhibition at 5 µM [2] [%] | Structure (SMILES) |
| --- | --- | --- | --- | --- | --- | --- |
| 2300 ± 66 | 240 ± 38 | – | – | – | – | O=C(N[C@@H](CCCNCc1ccccc1)C(=O)NCCc1ccccc1)c1ccccc1-c1ccccc1 [Compound 1, (2S)-5-(benzylamino)-N-(2-phenylethyl)-2-[(2-phenylphenyl)formamido]pentanamide] |
| 910 ± 94 | 480 ± 33 | – | – | – | – | O=C(N[C@H](CCCNCc1ccccc1)C(=O)NCCc1ccccc1)c1ccccc1-c1ccccc1 [Compound 2, (2R)-5-(benzylamino)-N-(2-phenylethyl)-2-[(2-phenylphenyl)formamido]pentanamide] |
| – | – | 25 ± 5 | 64 ± 3 | 32 ± 1 | 74 ± 2 | O=C(N[C@@H](CCCNCc1ccccc1Cl)C(=O)NCCc1ccccc1)c1ccccc1-c1ccccc1 [Compound 12, (2S)-5-{[(2-chlorophenyl)methyl]amino}-N-(2-phenylethyl)-2-[(2-phenylphenyl)formamido]pentanamide] |
| 1100 ± 510 | 680 ± 160 | – | – | – | – | CN(CCC[C@H](NC(=O)c1ccccc1-c1ccccc1)C(=O)NCCc1ccccc1)Cc1ccccc1 [Compound 15, (2S)-5-[benzyl(methyl)amino]-N-(2-phenylethyl)-2-[(2-phenylphenyl)formamido]pentanamide] |
| – | – | 6 ± 13 | 47 ± 1 | 9 ± 4 | 50 ± 10 | COc1ccccc1CN(C)CCC[C@H](NC(=O)c1ccccc1-c1ccccc1)C(=O)NCCc1ccccc1 [Compound 16, (2S)-5-{[(2-methoxyphenyl)methyl](methyl)amino}-N-(2-phenylethyl)-2-[(2-phenylphenyl)formamido]pentanamide] |
| – | – | 0 | 39 ± 7 | 16 ± 5 | 60 ± 2 | CN(CCC[C@H](NC(=O)c1ccccc1-c1ccccc1)C(=O)NCCc1ccccc1)Cc1ccccc1Cl [Compound 19, (2S)-5-{[(2-chlorophenyl)methyl](methyl)amino}-N-(2-phenylethyl)-2-[(2-phenylphenyl)formamido]pentanamide] |
| 320 ± 10 | 500 ± 10 | – | – | – | – | O=C(N[C@@H](CCCN1CCc2ccccc2C1)C(=O)NCCc1ccccc1)c1ccccc1-c1ccccc1 [Compound 24, (2S)-N-(2-phenylethyl)-2-[(2-phenylphenyl)formamido]-5-(1,2,3,4-tetrahydroisoquinolin-2-yl)pentanamide] |
